Results from paper PMC10046369, “Low-Affinity/High-Selectivity Dopamine Transport Inhibition Sufficient to Rescue Cognitive Functions in the Aging Rat” (Biomolecules, 2023).

Columns and labels:
Assay in all cases: biochemical
Design in all cases: KINOMEscan competition binding panel, per cent of control
Conditions in all cases: read-out: %Ctrl @ 2800nM
CASK = CASK (Homo sapiens, UniProt O14936)
Outline: (§1)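 Competition binding panel (KINOMEscan) across 450 human kinases and disease-relevant mutants, run to the contractor's standard protocol. Values are % control: (test signal − positive control signal)/(negative control signal − positive control signal) × 100, with lower values indicating stronger binding.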

FGFR2 = FGFR2 (Homo sapiens, UniProt P21802)
Outline: as §1

MEK5 = biological target: T1, MEK5 (Homo sapiens, UniProt Q13163)
T1 construct: gene MAP2K5
Outline: as §1

CSNK1A1L = CSNK1A1L (Homo sapiens, UniProt Q8N752)
Outline: as §1

LIMK2 = LIMK2 (Homo sapiens, UniProt P53671)
Outline: as §1

EGFR(L747-T751del,Sins) = EGFR(L747-T751del,Sins) (Homo sapiens, UniProt P00533, DEL747-750/T751S)
Outline: as §1

PIP5K1C = PIP5K1C (Homo sapiens, UniProt O60331)
Outline: as §1

FLT3(D835V) = FLT3(D835V) (Homo sapiens, UniProt P36888, D835V)
Outline: as §1

SYK = SYK (Homo sapiens, UniProt P43405)
Outline: as §1

CAMK1D = CAMK1D (Homo sapiens, UniProt Q8IU85)
Outline: as §1

OSR1 = biological target: T2, OSR1 (Homo sapiens, UniProt O95747)
T2 construct: gene OXSR1
Outline: as §1

NDR1 = biological target: T3, NDR1 (Homo sapiens, UniProt Q15208)
T3 construct: gene STK38
Outline: as §1

PRKR = biological target: T4, PRKR (Homo sapiens, UniProt P19525)
T4 construct: gene EIF2AK2
Outline: as §1

EGFR = EGFR (Homo sapiens, UniProt P00533)
Outline: as §1

RIPK5 = biological target: T5, RIPK5 (Homo sapiens, UniProt Q6XUX3)
T5 construct: gene DSTYK
Outline: as §1

CLK4 = CLK4 (Homo sapiens, UniProt Q9HAZ1)
Outline: as §1

MELK = MELK (Homo sapiens, UniProt Q14680)
Outline: as §1

CSNK1E = CSNK1E (Homo sapiens, UniProt P49674)
Outline: as §1

[1] = biological target: T6, ABL1(H396P)-phosphorylated (Homo sapiens, UniProt P00519, H396P)
T6 construct: phosphorylated
Outline: as §1

ALK(L1196M) = ALK(L1196M) (Homo sapiens, UniProt Q9UM73, L1196M)
Outline: as §1

CDK9 = CDK9 (Homo sapiens, UniProt P50750)
Outline: as §1

[2] = biological target: T7, RSK4(Kin.Dom.1-N-terminal) (Homo sapiens, UniProt Q9UK32)
T7 construct: gene RPS6KA6; Kin.Dom.1-N-terminal
Outline: as §1

CDC2L5 = biological target: T8, CDC2L5 (Homo sapiens, UniProt Q14004)
T8 construct: gene CDK13
Outline: as §1

PIK3CA(H1047Y) = PIK3CA(H1047Y) (Homo sapiens, UniProt P42336, H1047Y)
Outline: as §1

EGFR(E746-A750del) = EGFR(E746-A750del) (Homo sapiens, UniProt P00533, DEL746-750)
Outline: as §1

Chain of ALK(L1196M) (Q9UM73 whole entry L1196M): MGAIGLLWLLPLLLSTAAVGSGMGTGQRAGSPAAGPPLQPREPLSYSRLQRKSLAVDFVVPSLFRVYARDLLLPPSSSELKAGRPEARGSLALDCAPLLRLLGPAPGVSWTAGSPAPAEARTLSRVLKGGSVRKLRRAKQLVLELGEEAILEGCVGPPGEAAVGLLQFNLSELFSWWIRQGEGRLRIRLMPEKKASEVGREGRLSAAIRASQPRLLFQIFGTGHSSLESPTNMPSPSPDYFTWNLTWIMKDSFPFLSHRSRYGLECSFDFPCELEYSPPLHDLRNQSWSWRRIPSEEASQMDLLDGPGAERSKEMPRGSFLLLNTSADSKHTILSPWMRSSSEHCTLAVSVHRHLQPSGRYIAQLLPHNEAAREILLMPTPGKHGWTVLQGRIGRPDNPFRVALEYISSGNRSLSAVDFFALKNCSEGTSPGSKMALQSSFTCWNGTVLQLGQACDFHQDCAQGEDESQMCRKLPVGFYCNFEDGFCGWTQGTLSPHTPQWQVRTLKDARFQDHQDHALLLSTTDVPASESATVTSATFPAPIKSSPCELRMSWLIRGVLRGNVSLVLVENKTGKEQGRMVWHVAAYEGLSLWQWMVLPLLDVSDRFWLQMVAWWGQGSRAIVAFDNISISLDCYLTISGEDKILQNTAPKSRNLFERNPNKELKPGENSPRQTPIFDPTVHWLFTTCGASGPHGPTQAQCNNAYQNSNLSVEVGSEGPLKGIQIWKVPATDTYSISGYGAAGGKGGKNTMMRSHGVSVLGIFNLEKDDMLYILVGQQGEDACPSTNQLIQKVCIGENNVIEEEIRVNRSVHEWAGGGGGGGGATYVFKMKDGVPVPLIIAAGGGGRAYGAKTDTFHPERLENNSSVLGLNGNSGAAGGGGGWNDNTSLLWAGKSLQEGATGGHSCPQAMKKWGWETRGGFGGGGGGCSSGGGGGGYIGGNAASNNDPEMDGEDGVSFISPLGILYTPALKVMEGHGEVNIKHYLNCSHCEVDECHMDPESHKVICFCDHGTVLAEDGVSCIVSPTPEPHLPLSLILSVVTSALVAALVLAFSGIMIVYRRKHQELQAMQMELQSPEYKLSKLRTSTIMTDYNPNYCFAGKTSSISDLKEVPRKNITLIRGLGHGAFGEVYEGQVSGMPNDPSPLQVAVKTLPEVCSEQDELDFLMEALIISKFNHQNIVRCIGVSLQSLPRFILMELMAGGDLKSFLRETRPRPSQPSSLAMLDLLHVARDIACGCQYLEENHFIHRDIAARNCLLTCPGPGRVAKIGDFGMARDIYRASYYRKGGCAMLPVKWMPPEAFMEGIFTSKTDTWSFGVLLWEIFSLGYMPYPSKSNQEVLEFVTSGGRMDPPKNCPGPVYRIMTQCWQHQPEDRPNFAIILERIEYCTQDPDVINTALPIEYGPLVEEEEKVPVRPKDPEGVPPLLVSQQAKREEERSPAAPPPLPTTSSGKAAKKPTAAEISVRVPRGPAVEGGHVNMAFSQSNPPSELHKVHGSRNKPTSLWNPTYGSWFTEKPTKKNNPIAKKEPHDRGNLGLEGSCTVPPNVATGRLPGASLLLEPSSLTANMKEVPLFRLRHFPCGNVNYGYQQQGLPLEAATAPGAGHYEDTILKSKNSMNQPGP
Chain of PIK3CA(H1047Y) (P42336 whole entry H1047Y): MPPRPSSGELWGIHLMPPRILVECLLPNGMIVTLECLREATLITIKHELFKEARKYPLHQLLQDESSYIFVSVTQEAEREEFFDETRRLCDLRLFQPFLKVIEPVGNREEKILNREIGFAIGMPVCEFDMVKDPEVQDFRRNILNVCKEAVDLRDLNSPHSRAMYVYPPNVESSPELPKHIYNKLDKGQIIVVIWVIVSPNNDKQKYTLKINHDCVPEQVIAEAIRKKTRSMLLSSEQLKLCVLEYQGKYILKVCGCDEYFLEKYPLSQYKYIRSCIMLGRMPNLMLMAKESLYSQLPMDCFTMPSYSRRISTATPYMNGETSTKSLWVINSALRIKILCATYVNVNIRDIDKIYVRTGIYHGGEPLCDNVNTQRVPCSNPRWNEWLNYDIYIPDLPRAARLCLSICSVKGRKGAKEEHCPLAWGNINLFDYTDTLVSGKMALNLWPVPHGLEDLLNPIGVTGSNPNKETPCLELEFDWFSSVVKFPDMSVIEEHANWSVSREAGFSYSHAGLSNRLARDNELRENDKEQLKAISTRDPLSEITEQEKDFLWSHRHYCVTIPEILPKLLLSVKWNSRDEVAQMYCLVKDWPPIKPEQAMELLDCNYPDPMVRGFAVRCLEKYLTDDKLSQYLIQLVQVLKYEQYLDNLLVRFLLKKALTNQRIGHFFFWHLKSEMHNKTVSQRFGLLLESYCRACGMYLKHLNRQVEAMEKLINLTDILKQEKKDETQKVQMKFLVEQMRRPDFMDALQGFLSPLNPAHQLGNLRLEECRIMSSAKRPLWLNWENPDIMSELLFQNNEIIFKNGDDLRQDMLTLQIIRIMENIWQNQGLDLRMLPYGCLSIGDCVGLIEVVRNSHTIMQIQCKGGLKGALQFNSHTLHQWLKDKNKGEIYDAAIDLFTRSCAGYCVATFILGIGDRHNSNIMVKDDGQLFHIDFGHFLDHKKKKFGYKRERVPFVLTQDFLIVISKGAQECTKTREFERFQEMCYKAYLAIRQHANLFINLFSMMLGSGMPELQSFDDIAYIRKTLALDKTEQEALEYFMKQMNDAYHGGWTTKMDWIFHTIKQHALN
Chain of EGFR(L747-T751del,Sins) (P00533 with tags, fused parts or gaps DEL747-750/T751S): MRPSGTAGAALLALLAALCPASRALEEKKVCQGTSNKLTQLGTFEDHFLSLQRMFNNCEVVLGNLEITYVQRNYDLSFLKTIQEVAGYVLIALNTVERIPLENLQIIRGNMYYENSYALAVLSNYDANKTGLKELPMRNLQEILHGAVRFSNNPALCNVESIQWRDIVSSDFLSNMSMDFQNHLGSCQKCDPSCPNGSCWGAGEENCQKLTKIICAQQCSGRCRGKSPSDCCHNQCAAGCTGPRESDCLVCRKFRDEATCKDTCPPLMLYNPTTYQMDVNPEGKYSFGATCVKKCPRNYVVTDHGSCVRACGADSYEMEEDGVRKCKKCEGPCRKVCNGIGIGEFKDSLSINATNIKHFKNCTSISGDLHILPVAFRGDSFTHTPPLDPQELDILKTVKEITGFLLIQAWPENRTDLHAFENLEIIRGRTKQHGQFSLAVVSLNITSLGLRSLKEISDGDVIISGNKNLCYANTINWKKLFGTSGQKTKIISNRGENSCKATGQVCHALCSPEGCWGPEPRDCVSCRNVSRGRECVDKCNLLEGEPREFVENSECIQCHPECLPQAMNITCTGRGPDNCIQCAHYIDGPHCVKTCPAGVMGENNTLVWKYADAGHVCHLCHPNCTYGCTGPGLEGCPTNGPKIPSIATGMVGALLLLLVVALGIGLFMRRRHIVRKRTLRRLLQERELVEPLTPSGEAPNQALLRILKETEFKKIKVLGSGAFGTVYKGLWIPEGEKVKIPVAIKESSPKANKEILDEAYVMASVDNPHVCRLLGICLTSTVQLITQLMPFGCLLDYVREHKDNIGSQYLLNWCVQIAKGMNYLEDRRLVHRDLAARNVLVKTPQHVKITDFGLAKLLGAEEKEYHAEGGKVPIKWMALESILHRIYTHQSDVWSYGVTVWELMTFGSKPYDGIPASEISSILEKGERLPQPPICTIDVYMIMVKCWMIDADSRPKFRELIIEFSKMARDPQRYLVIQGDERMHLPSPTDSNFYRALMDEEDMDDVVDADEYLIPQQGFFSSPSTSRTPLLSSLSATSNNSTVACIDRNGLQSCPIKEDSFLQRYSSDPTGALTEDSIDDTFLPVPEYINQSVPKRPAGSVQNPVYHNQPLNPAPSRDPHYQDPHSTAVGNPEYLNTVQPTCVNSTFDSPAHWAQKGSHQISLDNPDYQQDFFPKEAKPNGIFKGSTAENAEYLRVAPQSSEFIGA
Chain of CASK (O14936 whole entry): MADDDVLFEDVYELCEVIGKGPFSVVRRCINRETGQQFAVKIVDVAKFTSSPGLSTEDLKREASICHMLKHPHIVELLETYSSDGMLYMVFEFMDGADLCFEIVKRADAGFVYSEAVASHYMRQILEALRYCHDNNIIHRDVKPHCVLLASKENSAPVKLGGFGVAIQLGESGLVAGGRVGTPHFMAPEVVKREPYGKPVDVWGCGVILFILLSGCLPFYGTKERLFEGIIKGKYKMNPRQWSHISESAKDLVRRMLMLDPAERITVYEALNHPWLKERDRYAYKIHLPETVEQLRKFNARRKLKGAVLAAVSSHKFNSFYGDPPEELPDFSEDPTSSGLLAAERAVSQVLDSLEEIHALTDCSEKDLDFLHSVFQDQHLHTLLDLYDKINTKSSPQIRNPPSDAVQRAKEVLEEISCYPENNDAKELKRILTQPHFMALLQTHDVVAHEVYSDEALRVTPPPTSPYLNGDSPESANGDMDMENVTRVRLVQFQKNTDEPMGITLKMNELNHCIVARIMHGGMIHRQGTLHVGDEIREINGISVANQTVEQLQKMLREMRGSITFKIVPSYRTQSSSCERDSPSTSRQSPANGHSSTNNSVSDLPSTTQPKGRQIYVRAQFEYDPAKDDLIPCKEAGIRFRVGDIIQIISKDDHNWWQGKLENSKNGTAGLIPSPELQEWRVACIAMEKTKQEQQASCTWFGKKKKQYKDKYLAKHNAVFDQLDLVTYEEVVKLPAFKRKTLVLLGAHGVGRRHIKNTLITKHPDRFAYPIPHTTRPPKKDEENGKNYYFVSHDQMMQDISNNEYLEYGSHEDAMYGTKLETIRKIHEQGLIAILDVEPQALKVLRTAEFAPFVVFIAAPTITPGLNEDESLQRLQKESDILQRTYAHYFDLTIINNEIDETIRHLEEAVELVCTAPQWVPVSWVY

[O-][S@@+](Cc1cncs1)C(c1ccccc1)c1ccccc1 [S-CE-123, (S)-5-((Benzhydrylsulfinyl)Methyl)Thiazole]
remaining binding at 2.8 µM (CASK): 82%
remaining binding at 2.8 µM (FGFR2): 87%
remaining binding at 2.8 µM (MEK5): 98%
remaining binding at 2.8 µM (CSNK1A1L): 100%
remaining binding at 2.8 µM (LIMK2): 88%
remaining binding at 2.8 µM (EGFR(L747-T751del,Sins)): 57%
remaining binding at 2.8 µM (PIP5K1C): 100%
remaining binding at 2.8 µM (FLT3(D835V)): 100%
remaining binding at 2.8 µM (SYK): 100%
remaining binding at 2.8 µM (CAMK1D): 96%
remaining binding at 2.8 µM (OSR1): 90%
remaining binding at 2.8 µM (NDR1): 83%
remaining binding at 2.8 µM (PRKR): 93%
remaining binding at 2.8 µM (EGFR): 92%
remaining binding at 2.8 µM (RIPK5): 95%
remaining binding at 2.8 µM (CLK4): 100%
remaining binding at 2.8 µM (MELK): 67%
remaining binding at 2.8 µM (CSNK1E): 96%
remaining binding at 2.8 µM [1]: 90%
remaining binding at 2.8 µM (ALK(L1196M)): 100%
remaining binding at 2.8 µM (CDK9): 92%
remaining binding at 2.8 µM [2]: 100%
remaining binding at 2.8 µM (CDC2L5): 98%
remaining binding at 2.8 µM (PIK3CA(H1047Y)): 100%
remaining binding at 2.8 µM (EGFR(E746-A750del)): 93%
